US20230255962A1, “COMBINATION OF A BTK INHIBITOR AND AN INHIBITOR OF CDK9 TO TREAT CANCER” (ASTRAZENECA AB, priority 2017, published 2023)

Experiments:
[1] = system: OCILy10; test: CellTiter-Glo viability readout, 72 hours, GI50; format: cell-based; conditions: OCILy10, 10-point dose-response
Experimental: (§1) Two ABC-DLBCL (OCILy10 and TMD8) cell lines and one GCB-DLBCL (Karpas422) cell line were treated with either vehicle (DMSO) or a 10-point, ½ log serially dilution of acalabrutinib for 72 hours with a CellTiter-Glo viability readout. The concentration at which 50% growth is inhibited (GI50) was calculated using GraphPad Prism or GeneData.

[2] = system: TMD8; test: CellTiter-Glo viability readout, 72 hours, GI50; format: cell-based; conditions: TMD8, 10-point dose-response
Experimental: as §1

[3] = system: OCILy10; test: Western blot of Bcl2 family / BH3-only protein levels; format: cell-based
Experimental: (§2) OCILy10, TMD8, and Karpas422 were treated with either vehicle or 100 nM acalabrutinib for 2 to 72 hours. Protein lysates were harvested at multiple time points in that interval, protein concentration was determined using the BCA Protein Assay Kit, and Western blots were performed according to standard protocol to assess the effects on Bcl2 family protein levels. Each sample was normalized to vinculin as a loading control, and then protein levels of acalabrutinib-treated samples were calculated relative to those of vehicle-treated samples.
The BTK inhibitor-sensitive ABC-DLBCL cell line OCILy10 was treated in vitro for an 8-hour time course with either 100 nM AZD4573 alone or following a 24-hour pre-treatment with 30 nM ibrutinib since, similar to acalabrutinib, exposure for 24 hours was sufficient to induce maximal BH3-only protein levels (data not shown). Cells were harvested for protein lysates at varying time points (0, 0.5, 1, 2, 4, and 8 hours) post-AZD4573 treatment, normalized for protein concentration using the BCA Protein Assay Kit, and run for Western blots according to standard protocols. To ensure expected target engagement was achieved, the blots were probed for the proximal and distal biomarkers for CDK9 (pSer2-RNAPolII and Mcl-1, respectively) and the biomarker for activated BTK (pBTK). […] To gauge the time to induction of apoptosis, cleaved caspase-3 was also assessed. […]

[4] = system: Karpas422; test: as above; format: cell-based; conditions: Karpas422, 100 nM acalabrutinib
Experimental: as §2

[5] = system: TMD8; test: as above; format: cell-based
Experimental: as §2

[6] = system: Karpas422; test: TMRE/DAPI flow cytometry, percentage of apoptotic or dead cells; format: cell-based; conditions: Karpas-422, 100 nM acalabrutinib alone or in combination with 100 nM AZD4573
Experimental: (§3) Two BTK inhibitor-sensitive ABC-DLBCL cell lines (OCILy10 and TMD8) and one insensitive GCB-DLBCL cell line (Karpas422) were treated with either vehicle (DMSO), 100 nM acalabrutinib, or 100 nM AZD4573 for varying lengths of time as either single agent or in combination. Since exposure of BTKi-sensitive cell lines to acalabrutinib for 24 hours was sufficient to induce maximal BH3-only protein levels relative to vehicle-treated cells (FIG. 1), 24-hour pre-treatment of acalabrutinib was chosen for one of the combination sequences. Therefore, cells were treated with: 32 hours of acalabrutinib alone; 8 hours of AZD4573 alone; 8 hours of AZD4573 and acalabrutinib dosed concurrently; or 32 hours of acalabrutinib with AZD4573 added sequentially for the final 8 of those 32 hours (in other words, 24 hours of acalabrutinib pre-treatment).
(§4) The percentage of apoptotic or dead cells was determined by staining the samples with both tetramethylrhodamine, ethyl ester (TMRE) and 4′,6-diamidino-2-phenylindole (DAPI) and then subjecting them to flow cytometry using a BD LSR Fortessa. TMRE is a positively charged dye that accumulates in active mitochondria, and cells undergoing apoptosis experience mitochondrial outter membrane permeabilization (MOMP), which then fails to retain TMRE. […] Following appropriate treatments, cells were stained directly with 200 nM TMRE, incubated for 30 minutes at 37° C., resuspended in flow buffer containing DAPI, and subjected to flow cytometry. Flowjo was used to establish appropriate gates according to viability (DAPI) and MOMP (TMRE), and viable cells were defined as those with low DAPI and high TMRE staining.

[7] = system: OCILy10; test: as above; format: cell-based
Experimental: as §3, §4

[8] = system: OCILy10; test: Western blot time course, cleaved caspase-3 (induction of apoptosis); format: cell-based; conditions: OCILy10, 100 nM AZD4573 8-hour time course, alone or following 24-hour pre-treatment with 100 nM acalabrutinib
Experimental: (§5) Two BTK inhibitor-sensitive ABC-DLBCL cell lines (OCILy10 and TMD8) and one insensitive GCB-DLBCL cell line (Karpas422) were treated for an 8-hour time course with either 100 nM AZD4573 alone or following a 24-hour pre-treatment with 100 nM acalabrutinib (since exposure to acalabrutinib for 24 hours was sufficient to induce maximal BH3-only protein levels). Cells were harvested for protein lysates at varying time points (0, 0.5, 1, 2, 4, and 8 hours) post-AZD4573 treatment, normalized for protein concentration using the BCA Protein Assay Kit, and run for western blots according to standard protocols. To ensure expected target engagement was achieved, the blots were probed for the proximal and distal biomarkers for CDK9 (pSer2-RNAPolII and Mcl-1, respectively) and the biomarker for activated BTK (pBTK). To gauge the time to induction of apoptosis, cleaved caspase-3 was also assessed. A loading control (vinculin) was also utilized for normalization.
The BTK inhibitor-sensitive ABC-DLBCL cell line OCILy10 was treated in vitro for an 8-hour time course with either 100 nM AZD4573 alone or following a 24-hour pre-treatment with 30 nM ibrutinib since, similar to acalabrutinib, exposure for 24 hours was sufficient to induce maximal BH3-only protein levels (data not shown). […] To gauge the time to induction of apoptosis, cleaved caspase-3 was also assessed. […]

[9] = system: TMD8; test: as above; format: cell-based; conditions: TMD8, 100 nM AZD4573 8-hour time course, alone or following 24-hour pre-treatment with 100 nM acalabrutinib
Experimental: as §5

[10] = system: OCILy10 tumor cells; test: Subcutaneous tumor model, tumor volume; format: in vivo, C.B.-17 SCID female mice; conditions: OCILy10, following 3 cycles of dosing; AZD4573 ip BID 2 on/5 off, ibrutinib 12 mg/kg po QD
Experimental: AZD4573 was formulated in dimethylacetamide (DMA)/polyethylene glycol 400 (PEG 400)/1% w/v Tween 80 solution 2/30/68 and dosed at 5 mL/kg, intraperitoneally (ip), BID with a 2 hour split on days 1 and 2 followed by a 5 day dose holiday; i.e., a 2 on/5 off schedule. […]
5×10^6 OCILy10 tumor cells or 10×10^6 TMD8 tumor cells were injected subcutaneously in the right flank of C.B.-17 SCID female mice in a volume of 0.1 mL containing 50% matrigel. 10×10^6 Karpas-422 tumor cells were injected subcutaneously in the right flank of SCID beige female mice in a volume of 0.1 mL containing 50% matrigel. Tumor volumes (measured by caliper), animal body weight, and tumor condition were recorded twice weekly for the duration of the studies. The tumor volume was calculated using the formula: length (mm)×width (mm)^2×0.52. For efficacy studies, growth inhibition from the start of treatment was assessed by comparison of the differences in tumor volume between control and treated groups. […]
AZD4573 was formulated in dimethylacetamide (DMA)/polyethylene glycol 400 (PEG 400)/1% w/v Tween 80 solution 2/30/68 and dosed at 5 mL/kg, intraperitoneally (ip), bi-daily (BID) with a 2 hour split on days 1 and 2 with a 5 day dose holiday. […] Tumor volumes (measured by caliper), animal body weight, and tumor condition were recorded twice weekly for the duration of the studies. […]

| SMILES | sensitivity to BTK inhibition (dose-response) [1] | sensitivity to BTK inhibition (dose-response) [2] | time to maximal BH3-only protein levels following dosing ([3]; BTK inhibitor-sensitive cells (OCILy10), 100 nM) | levels of pro-apoptotic BH3-only proteins Bim and Bmf ([3]; OCILy10, 100 nM acalabrutinib, 24 hours, relative to the insensitive cell line) | BH3-only protein levels [4] | time to maximal BH3-only protein levels following dosing ([5]; BTK inhibitor-sensitive cells (TMD8), 100 nM) | levels of pro-apoptotic BH3-only proteins Bim and Bmf ([5]; TMD8, 100 nM acalabrutinib, 24 hours, relative to the insensitive cell line) | effect on apoptotic/dead cells [6] | cell death ([7]; OCI-LY-10, 32 hours of 100 nM acalabrutinib alone) | induction of cleaved caspase [8] | induction of cleaved caspase [9] | cell death ([7]; OCI-LY-10, 8 hours of 100 nM AZD4573 alone) | complete response, % of treated animals [10] |
| --- | --- | --- | --- | --- | --- | --- | --- | --- | --- | --- | --- | --- | --- |
| CC#CC(=O)N1CCC[C@H]1c1nc(-c2ccc(C(=O)Nc3ccccn3)cc2)c2c(N)nccn12 [acalabrutinib, (S)-4-(8-amino-3-(1-but-2-ynoylpyrrolidin-2-yl)imidazo[1,5-a]pyrazin-1-yl)-N-(pyridin-2-yl)benzamide] | sensitive | sensitive | ≤ 24 h | increased | did not increase | ≤ 24 h | increased | minimal effect | ~20% |  |  |  |  |
| CC(=O)N[C@@H]1CCC[C@H](C(=O)Nc2cc(-c3cnn4c3CC(C)(C)C4)c(Cl)cn2)C1 [AZD4573, (1S,3R)-3-acetamido-N-(5-chloro-4-(5,5-dimethyl-5,6-dihydro-4H-pyrrolo[1,2-b]pyrazol-3-yl)pyridin-2-yl)cyclohexanecarboxamide] |  |  |  |  |  |  |  |  |  | mild caspase activation by 8 hours | mild caspase activation by 8 hours | ~40% | 100% |
